Patent US10285982B2, “3-(1H-pyrrolo[2,3-B]pyridin-2-yl)-1H-pyrazolo[3,4-C]pyridines and therapeutic uses thereof” (Samumed, LLC, priority 2015, dated 2019)
pEC50: −log10 of the molar value.

How the values were obtained:
Type in all cases: cell-based
[1] = tested on: Wnt activity (Sp5-Luc reporter, SW480 colon carcinoma cells); test: Wnt activity screening assay, Sp5-Luc reporter gene in SW480 cells; conditions: Homo sapiens; for inhibition at 10 µM: given where EC50 >10 μM, read-out: percent inhibition at 10 μM; for pEC50: overnight incubation
Description: The screening assay for Wnt activity is described as follows. Reporter cell lines can be generated by stably transducing cancer cell lines (e.g., colon cancer) or primary cells (e.g., IEC-6 intestinal cells) with a lentiviral construct that includes a Wnt-responsive promoter driving expression of the firefly luciferase gene.
SW480 colon carcinoma cells were transduced with a lentiviral vector expressing luciferase with a human Sp5 promoter consisting of a sequence of eight TCF/LEF binding sites. SW480 cells stably expressing the Sp5-Luc reporter gene and a hygromycin resistance gene were selected by treatment with 150 μg/mL of hygromycin for 7 days. These stably transduced SW480 cells were expanded in cell culture and used for all further screening activities. Each compound was dissolved in DMSO as a 10 mM stock and used to prepare compound source plates. Serial dilution (1:3, 10-point dose-response curves starting from 10 μM) and compound transfer was performed using the ECHO 550 (Labcyte, Sunnyvale, Calif.) into 384-well white solid bottom assay plates (Greiner Bio-One) with appropriate DMSO backfill for a final DMSO concentration of 0.1%. For Sp5-Luc reporter gene assays, the cells were plated at 4,000 cells/well in 384-well plates with medium containing 1% fetal bovine serum and incubated overnight at 37° C. and 5% CO2. Following incubation, 20 μl of BrightGlo luminescence reagent (Promega) was added to each well of the 384-well assay plates. The plates were placed on an orbital shaker for 2 min and then luminescence was quantified using the Envision (Perkin Elmer) plate reader. Readings were normalized to DMSO only treated cells, and normalized activities were utilized for EC50 calculations using the dose-response log (inhibitor) vs. response-variable slope (four parameters) nonlinear regression feature available in GraphPad Prism 5.0 (or Dotmatics). For EC50 of >10 μM, the percent inhibition at 10 μM is provided.

[2] = tested on: IL-6 (THP-1 cells); test: IL-6 inhibition in LPS-stimulated THP-1 cells (HTRF); conditions: Homo sapiens; for pEC50: IL-6 in THP-1 cells, LPS 500 ng/mL, 22 hours; for inhibition at 10 µM: given where EC50 >10 μM, IL-6, THP-1 cells, LPS, read-out: percent inhibition at 10 μM
Experimental: Human monocyte cell line (THP-1 cells; Catalog # TIB-202, ATCC, Manassas, Va.) were cultured in Roswell Park Memorial Institute (RPMI) 1640 Medium (Catalog #21870-100, Buffalo, N.Y.) with 1% L-glutamine, 1% HEPES, 1% Sodium Pyruvate, 2% Sodium Bicarbonate supplemented with 100 units/mL penicillin, 50 μg/mL streptomycin, 2-mercaptoethanol (0.05 mM) [basal medium] and 10% fetal bovine serum (Catalog #16140089, Life Technologies, Carlsbad, Calif.) at 37° C. and 5% CO2.
THP-1 cells were cultured in basal media with 1% FBS for 24 hours before the start of the assay. Each compound was dissolved in DMSO as a 10 mM stock and used to prepare compound source plates. Serial dilution (1:3, 10-point dose-response curves starting from 10 μM) and compound transfer was performed using the ECHO 550 (Labcyte, Sunnyvale, Calif.) into 384-well white low volume assay plates (Greiner Bio-One) with appropriate DMSO backfill for a final DMSO concentration of 0.1%. THP-1 cells were plated at 5000 cells/well in the 384-well plates and incubated at 37° C. for 2 h. 500 ng/mL of LPS was added after 2 hours and cells were incubated for another 22 hours at 37° C. Plates were spun in a centrifuge for 1 minute at […] and a mixture of anti-IL6 XL665, and anti-IL6 Cryptate diluted in reconstitution buffer (Cisbio Inc.) was added to each well. Following incubation for 3 hrs at room temperature, Homogeneous Time-Resolved Fluorescence (HTRF) was measured using the Envision (Perkin Elmer) at 665 nm and […]. The ratio of fluorescence at 665 nm to 620 nm was used as a readout for IL6 quantification. All samples were processed in duplicate. Readings were normalized to DMSO treated cells and normalized activities were utilized for EC50 calculations using the dose-response log (inhibitor) vs. response-variable slope (four parameters) nonlinear regression feature available in GraphPad Prism 5.0 (or Dotmatics). For EC50 of >10 μM, the percent inhibition at 10 μM is provided.

[3] = tested on: SW480 colon cancer cells; test: Cell viability assay (CellTiter-Blue); conditions: Homo sapiens, 96 h, four days; for inhibition at 10 µM: given where EC50 >10 μM, read-out: percent inhibition at 10 μM
Experimental: Representative compounds were screened using the following assay procedure to assess the effect on cell viability as described below.
Each compound was dissolved in DMSO as a 10 mM stock and used to prepare compound source plates. Serial dilution (1:3, 8-point dose-response curves from 10 μM to 0.0045 μM) and compound transfer was performed using the ECHO 550 (Labcyte, Sunnyvale, Calif.) into 96-well clear bottom, black-walled plates (Corning-Costar).
Approximately 2×10^3 SW480 colon cancer cells were seeded into each well and allowed to incubate in the presence or absence of compound for four days at 37° C./5% CO2. Eight replicates of DMSO-treated cells served as controls and cells treated with compound were performed in duplicate.
After incubation, 20 μL of CellTiter-Blue (Promega) was added to each well allowed to incubate for approximately 3 hours. This reagent was a buffered solution which contains resazurin, metabolically active cells were able to reduce rezarurin (blue) into resorufin (pink) which was highly fluorescent. This measured fluorescence was used as a readout for cell viability.
After incubation, the plates were read at Ex 560 nm Em 590 nm (Cytation 3, BioTek). Dose-response curves were generated and EC50 concentration values were calculated using non-linear regression curve fit in the GraphPad Prism (San Diego, Calif.) or Dotmatics' Studies Software (Bishops Stortford, UK). For EC50 of >10 μM, the percent inhibition at 10 μM is provided.

`CCC(=O)Nc1cncc(-c2cc3c(-c4cc5c(-c6cccc(F)c6)ccnc5[nH]4)n[nH]c3cn2)c1` [Compound 1, N-(5-(3-(4-(3-Fluorophenyl)-1H-pyrrolo[2,3-b]pyridin-2-yl)-1H-pyrazolo [3,4-c]pyridin-5-yl)pyridin-3-yl)propionamide] gave an inhibition at 10 µM [1] of 24.3%, a pEC50 [1] of less than 5.00 and a pEC50 [2] of less than 5.00. It also gave an inhibition at 10 µM [2] of 23.6%, an inhibition at 10 µM [3] of 36.3% and a pEC50 [3] of less than 5.00.
For `Fc1cccc(-c2ccnc3[nH]c(-c4n[nH]c5cnc(-c6cccnc6)cc45)cc23)c1` [Compound 4, 3-(4-(3-Fluorophenyl)-1H-pyrrolo[2,3-b]pyridin-2-yl)-5-(pyridin-3-yl)-1H-pyrazolo[3,4-c]pyridine], the pEC50 [1] was 5.92, the pEC50 [2] was less than 5.00 and the inhibition at 10 µM [2] was 21.3%. It also gave a pEC50 [3] of 5.56.
In the case of `CC(C)(C)C(=O)Nc1cncc(-c2cc3c(-c4cc5c(-c6cccc(F)c6)ccnc5[nH]4)n[nH]c3cn2)c1` [Compound 8, N-(5-(3-(4-(3-Fluorophenyl)-1H-pyrrolo[2,3-b]pyridin-2-yl)-1H-pyrazolo [3,4-c]pyridin-5-yl)pyridin-3-yl)pivalamide], the pEC50 [1] was 7.14, the pEC50 [2] was less than 5.00 and the inhibition at 10 µM [2] was 45.4%. The pEC50 [3] was 6.14.
Compound `O=C(Nc1cncc(-c2cc3c(-c4cc5c(-c6cccc(F)c6)ccnc5[nH]4)n[nH]c3cn2)c1)c1ccccc1` [Compound 11, N-(5-(3-(4-(3-Fluorophenyl)-1H-pyrrolo[2,3-b]pyridin-2-yl)-1H-pyrazolo [3,4-c]pyridin-5-yl)pyridin-3-yl)benzamide] has an inhibition at 10 µM [1] of 8.2%, a pEC50 [1] of less than 5.00 and a pEC50 [2] of less than 5.00. The inhibition at 10 µM [2] was 38.9%, the inhibition at 10 µM [3] was 46.8% and the pEC50 [3] was less than 5.00.
With `Fc1cccc(-c2ccnc3[nH]c(-c4n[nH]c5cnc(-c6cncc(CN7CCCC7)c6)cc45)cc23)c1` [Compound 14, 3-(4-(3-Fluorophenyl)-1H-pyrrolo[2,3-b]pyridin-2-yl)-5-(5-(pyrrolidin-1-ylmethyl)pyridin-3-yl)-1H-pyrazolo[3,4-c]pyridine] the inhibition at 10 µM [1] was 22.8%, the pEC50 [1] was less than 5.00 and the pEC50 [2] was less than 5.00. It also gave an inhibition at 10 µM [2] of 21.6%, an inhibition at 10 µM [3] of 13.3% and a pEC50 [3] of less than 5.00.
Compound `O=C(Nc1cncc(-c2cc3c(-c4cc5c(-c6cccc(F)c6)ccnc5[nH]4)n[nH]c3cn2)c1)C1CC1` [Compound 20, N-(5-(3-(4-(3-Fluorophenyl)-1H-pyrrolo[2,3-b]pyridin-2-yl)-1H-pyrazolo [3,4-c]pyridin-5-yl)pyridin-3-yl)cyclopropanecarboxamide] has a pEC50 [1] of 7.01, a pEC50 [2] of less than 5.00 and an inhibition at 10 µM [2] of 42.8%. It also gave a pEC50 [3] of 6.80.
`Fc1cccc(-c2ccnc3[nH]c(-c4n[nH]c5cnc(-c6cncnc6)cc45)cc23)c1` [Compound 27, 3-(4-(3-Fluorophenyl)-1H-pyrrolo[2,3-b]pyridin-2-yl)-5-(pyrimidin-5-yl)-1H-pyrazolo[3,4-c]pyridine] gave a pEC50 [1] of 6.29, a pEC50 [2] of less than 5.00 and an inhibition at 10 µM [2] of 43.9%. For the same compound, the inhibition at 10 µM [3] was 41.2% and the pEC50 [3] was less than 5.00.
Work on `CC(C)CC(=O)Nc1cncc(-c2cc3c(-c4cc5c(-c6ccc(F)cc6)ccnc5[nH]4)n[nH]c3cn2)c1` [Compound 30, N-(5-(3-(4-(4-Fluorophenyl)-1H-pyrrolo[2,3-b]pyridin-2-yl)-1H-pyrazolo [3,4-c]pyridin-5-yl)pyridin-3-yl)-3-methylbutanamide] yielded a pEC50 [1] of 6.35, a pEC50 [2] of less than 5.00 and an inhibition at 10 µM [2] of 35.6%. The pEC50 [3] was 5.61.
Work on `CC(C)C(=O)Nc1cncc(-c2cc3c(-c4cc5c(-c6ccc(F)cc6)ccnc5[nH]4)n[nH]c3cn2)c1` [Compound 37, N-(5-(3-(4-(4-Fluorophenyl)-1H-pyrrolo[2,3-b]pyridin-2-yl)-1H-pyrazolo [3,4-c]pyridin-5-yl)pyridin-3-yl)isobutyramide] yielded a pEC50 [1] of 6.17, a pEC50 [2] of less than 5.00 and an inhibition at 10 µM [2] of 25.4%. It also gave a pEC50 [3] of 5.57.
For `O=C(Nc1cncc(-c2cc3c(-c4cc5c(-c6ccc(F)cc6)ccnc5[nH]4)n[nH]c3cn2)c1)C1CCC1` [Compound 49, N-(5-(3-(4-(4-Fluorophenyl)-1H-pyrrolo[2,3-b]pyridin-2-yl)-1H-pyrazolo [3,4-c]pyridin-5-yl)pyridin-3-yl)cyclobutanecarboxamide], the pEC50 [1] was 6.13, the pEC50 [2] was less than 5.00 and the inhibition at 10 µM [2] was 26.1%. The pEC50 [3] was 5.33.
`Nc1cncc(-c2cc3c(-c4cc5c(-c6ccccc6F)ccnc5[nH]4)n[nH]c3cn2)c1` [Compound 59, 5-(3-(4-(2-Fluorophenyl)-1H-pyrrolo[2,3-b]pyridin-2-yl)-1H-pyrazolo[3,4-c]pyridin-5-yl)pyridin-3-amine] gave an inhibition at 10 µM [1] of 14.3%, a pEC50 [1] of less than 5.00 and a pEC50 [2] of less than 5.00. The inhibition at 10 µM [2] was 37.3%, the inhibition at 10 µM [3] was 16.4% and the pEC50 [3] was less than 5.00.
Compound `CCNCc1cncc(-c2cc3c(-c4cc5c(-c6ccccc6F)ccnc5[nH]4)n[nH]c3cn2)c1` [Compound 62, N-((5-(3-(4-(2-Fluorophenyl)-1H-pyrrolo[2,3-b]pyridin-2-yl)-1H-pyrazolo [3,4-c]pyridin-5-yl)pyridin-3-yl)methyl)ethanamine] has an inhibition at 10 µM [1] of 6.8%, a pEC50 [1] of less than 5.00 and a pEC50 [2] of less than 5.00. It also gave an inhibition at 10 µM [2] of 24.8%, an inhibition at 10 µM [3] of 15.7% and a pEC50 [3] of less than 5.00.
For `O=C(Cc1ccccc1)Nc1cncc(-c2cc3c(-c4cc5c(-c6ccccc6F)ccnc5[nH]4)n[nH]c3cn2)c1` [Compound 66, N-(5-(3-(4-(2-Fluorophenyl)-1H-pyrrolo[2,3-b]pyridin-2-yl)-1H-pyrazolo [3,4-c]pyridin-5-yl)pyridin-3-yl)-2-phenylacetamide], the pEC50 [1] was 6.86, the pEC50 [2] was less than 5.00 and the inhibition at 10 µM [2] was 35.8%. The pEC50 [3] was 6.21.
For `CN(C)Cc1cncc(-c2cc3c(-c4cc5c(-c6ccccc6F)ccnc5[nH]4)n[nH]c3cn2)c1` [Compound 69, 1-(5-(3-(4-(2-Fluorophenyl)-1H-pyrrolo[2,3-b]pyridin-2-yl)-1H-pyrazolo [3,4-c]pyridin-5-yl)pyridin-3-yl)-N,N-dimethylmethanamine], the inhibition at 10 µM [1] was 11.3%, the pEC50 [1] was less than 5.00 and the pEC50 [2] was less than 5.00. It also gave an inhibition at 10 µM [2] of 17.4%, an inhibition at 10 µM [3] of 13.2% and a pEC50 [3] of less than 5.00.
